Measured values reported in article PMC7481761 (Virologica Sinica, 2020).
Like-named read-outs stand apart in the source and are kept apart here. Marks after values point to notes of the source that are not given here.

Experiments:
Huh7 cells = conditions: CCK-8 assay
SARS-CoV-2 [1] = assay type: cell-based
SARS-CoV-2 [2] = experiment: microbe, parasite or virus in culture; assay type: cell-based; conditions: for IC50: Severe acute respiratory syndrome coronavirus 2, Huh-7, 48 h
Vero E6 cells = conditions: read-out: CC50 (half cytotoxic concentration)
SARS-CoV-2 [3] = experiment: Time-of-drug-addition assay in Vero E6 cells; assay type: cell-based
SARS-CoV-2 [4] = assay type: cell-based; remark: listed apart in the source
in vitro [5] = conditions: African green monkey
[6] = In vivo plasma exposure in humans; design: species or system human
[7] = plasma; ref Cvetkovic and Goa (2003); cited from earlier work
in vitro [8] = conditions: human
SARS-CoV-2 [9] = assay type: cell-based; conditions: Vero E6 cells, CC50/IC50

For `C#CC[C@@H](C(=O)N[C@H](/C=C/C(=O)OCC)C[C@@H]1CCNC1=O)n1cccc(NC(=O)c2cc(C)on2)c1=O` [AG7404], the CC50 (Huh7 cells) was greater than 400 µM, the “inhibitory effect by IFA” value (SARS-CoV-2 [1]) was “confirmed by IFA” and the IC50 (SARS-CoV-2 [2]) was 92.5 µM. The CC50 (Vero E6 cells) was greater than 400 µM, the “stage of infection at which the compound acts (time-of-drug-addition)” value (from here on “stage of infection”) (SARS-CoV-2 [3]) was “inhibit SARS-CoV-2 at the stages post virus infection” and the “NP expression by IFA” value (SARS-CoV-2 [4]) was “confirmed by IFA”.
In the case of `Cc1cccc(C)c1OCC(=O)N[C@@H](Cc1ccccc1)[C@@H](O)C[C@H](Cc1ccccc1)NC(=O)[C@H](C(C)C)N1CCCNC1=O` [Lopinavir, lopinavir], the CC50 (Huh7 cells) is reported as 64.4 µM, the “inhibitory effect by IFA” value (SARS-CoV-2 [1]) is reported as “IFA confirmed the inhibitory effect” and the IC50 (SARS-CoV-2 [2]) is reported as 7.79 µM. The CC50 (in vitro [5]) was 80.8 µM, the “stage of infection” value (SARS-CoV-2 [3]) was “inhibited SARS-CoV-2 infection after virus entry, but not during virus entry” and the “NP expression by IFA” value (SARS-CoV-2 [4]) was “decreased NP expression levels”.
In the case of `CC(C)c1nc(CN(C)C(=O)N[C@H](C(=O)N[C@@H](Cc2ccccc2)C[C@H](O)[C@H](Cc2ccccc2)NC(=O)OCc2cncs2)C(C)C)cs1` [Ritonavir, ritonavir], the “inhibitory effect by IFA” value (SARS-CoV-2 [1]) is reported as “IFA confirmed the inhibitory effect”, the “In vivo concentration Unbound Cmin” value [6] is reported as 0.0006 µmol/L and the IC50 (SARS-CoV-2 [2]) is reported as 11.7 µM. The “stage of infection” value (SARS-CoV-2 [3]) was “inhibited SARS-CoV-2 infection after virus entry, but not during virus entry”, the “In vivo concentration Cmin” value [7] was 0.038^e µmol/L and the “NP expression by IFA” value (SARS-CoV-2 [4]) was “decreased NP expression levels”.
With `CCOC(=O)/C=C/[C@H](C[C@@H]1CCNC1=O)NC(=O)[C@@H](CC(=O)[C@@H](NC(=O)c1cc(C)on1)C(C)C)Cc1ccc(F)cc1` [Rupintrivir, rupintrivir] the “inhibitory effect by IFA” value (SARS-CoV-2 [1]) was “confirmed by IFA”, the “selectivity index (SI)” value (SARS-CoV-2 [2]; Huh7 cells, CC50/IC50) was greater than 3.94 and the IC50 (SARS-CoV-2 [2]) was 25.4 µM. For the same compound, the CC50 (in vitro [8]) was greater than 100 µM, the CC50 (in vitro [5]) was greater than 100 µM and the “stage of infection” value (SARS-CoV-2 [3]) was “inhibit SARS-CoV-2 at the stages post virus infection”. For the same compound, the “selectivity index (SI)” value (SARS-CoV-2 [9]) was greater than 2.93 and the “NP expression by IFA” value (SARS-CoV-2 [4]) was “confirmed by IFA”.
